Measurements taken from PMC8896928, “Preparation, Characterization, and Preliminary Imaging Study of [^188Re]Re-Ibandronate as a Novel Theranostic Radiopharmaceutical for Bone Metastasis” (Contrast Media & Molecular Imaging, 2022).
“And” between values parts separate entries of the source, which are not always exact repeats. Equal entries are not always repeated. Where two headings read alike, the source gives them in different places.

Legend:
fresh human plasma = details: 37°C, 2 h
Excerpt: The results are expressed as mean ± standard deviation ( χ¯ ± s).

[1] = Biodistribution in normal mice; assay type: in vivo, Kunming mice
Description: Twenty Kunming mice (originated from Swiss albino mice and introduced into Kunming, China.) were randomly divided into five groups (equal number of males and females). Each group was injected with 3.7 MBq [^188Re]Re-IBA. […] The blood and important tissue and organ samples were collected to measure the radioactivity count by γ counter. Following the time attenuation correction, the percentage injection dose rate per gram of tissue (%ID/g) was calculated at each time point. The result is expressed as mean ± standard deviation ( χ¯ ± s). The in vivo distribution of [^188Re]ReO4^− was studied using the aforementioned method.

[2] = tested on: nude mice of bone metastasis model (PC-3, MDA-MB-231, left tibia); details: for ROI ratio of model bone/contralateral bone (mean): bone imaging
Description: The nude mice of the bone metastasis model were established by tibial bone marrow injection. The specific methods were as follows: 25 μL of prostate cancer PC-3 and breast cancer MDA-MB-231 cell culture medium were injected into the left tibial bone marrow cavity of healthy male and female nude mice, respectively. At approximately 3-4 weeks after inoculation, they were scanned by microcomputed tomography (CT, SIEMENS InveonTM, Munich, Germany) to determine the condition of the model. […] Bone metastases were initially evaluated by CT and confirmed by pathology after the completion of related studies.
The nude mice were injected with [^18F]F-sodium fluoride (NaF), [^99mTc]Tc-methylene diphosphonate (MDP), and [^188Re]Re-IBA at the first, second, and fifth days, respectively, for bone imaging. […]/computed tomography (PET/CT) acquisition equipment was SIEMENS InveonTM. Single-photon emission computed tomography/computed tomography (SPECT/CT) acquisition equipment was GE SPECT, pinhole collimator.

[3] = 37°C
Description: The RCP of [^188Re]Re-IBA was determined by PC. Acetone and 0.9% NaCl were used as the eluents. A TLC scanner was used to measure the distribution of radioactivity on the PC strips. The RCP of [^188Re]Re-IBA was calculated from the peak area measurements as follows: […]
Freshly prepared [^188Re]Re-IBA was incubated in 0.9% NaCl and fresh human serum at 37°C. The RCP of the tubes was determined by PC at 1 h, 3 h, 6 h, 12 h, and 24 h. The experiment was repeated thrice. The results are expressed as mean ± standard deviation ( χ¯ ± s).

With `CCCCCN(C)CCC1(O)P(=O)(O)[O][188Re]2([OH])([OH])([O]P1(=O)O)[O]P(=O)(O)C(O)(CCN(C)CCCCC)P(=O)(O)[O]2` (centres unmarked) [[^188Re]Re-IBA] the “PPB (plasma protein binding rate)” value (fresh human plasma) was 79.8 ± 0.71%, the “%ID/g Blood” value ([1]; 1 h) was 1.869 ± 0.665 %ID/g and the “%ID/g Brain” value ([1]; 1 h) was 0.072 ± 0.023 %ID/g. For the same compound, the “%ID/g Femur” value ([1]; 1 h) was 5.989 ± 1.680 %ID/g, the “%ID/g Gonad” value ([1]; 1 h) was 0.878 ± 0.426 %ID/g and the “%ID/g Heart” value ([1]; 1 h) was 0.488 ± 0.179 %ID/g. For the same compound, the “%ID/g Kidney” value ([1]; 1 h) was 5.894 ± 1.648 %ID/g, the “%ID/g Liver” value ([1]; 1 h) was 1.100 ± 0.165 %ID/g and the “%ID/g Lung” value ([1]; 1 h) was 1.297 ± 0.661 %ID/g. For the same compound, the “%ID/g Muscle” value ([1]; 1 h) was 0.550 ± 0.251 %ID/g, the “%ID/g Small intestine” value ([1]; 1 h) was 0.898 ± 0.494 %ID/g and the “%ID/g Spleen” value ([1]; 1 h) was 0.952 ± 0.336 %ID/g. The “%ID/g Stomach” value ([1]; 1 h) was 2.928 ± 0.851 %ID/g, the “%ID/g Thyroid gland” value ([1]; 1 h) was 0.594 ± 0.201 %ID/g and the Femur/heart radioactivity ratio ([1]; 1 h) was 12.278. The Femur/liver radioactivity ratio ([1]; 1 h) was 5.443, the Femur/muscle radioactivity ratio ([1]; 1 h) was 10.880 and the “%ID/g Blood” value ([1]; 3 h) was 0.785 ± 0.220 %ID/g. The “%ID/g Brain” value ([1]; 3 h) was 0.056 ± 0.010 %ID/g, the “%ID/g Femur” value ([1]; 3 h) was 7.105 ± 1.901 %ID/g and the “%ID/g Gonad” value ([1]; 3 h) was 0.611 ± 0.095 %ID/g. For the same compound, the “%ID/g Heart” value ([1]; 3 h) was 0.293 ± 0.118 %ID/g, the “%ID/g Kidney” value ([1]; 3 h) was 3.140 ± 0.799 %ID/g and the “%ID/g Liver” value ([1]; 3 h) was 0.794 ± 0.133 %ID/g. The “%ID/g Lung” value ([1]; 3 h) was 0.784 ± 0.196 %ID/g, the “%ID/g Muscle” value ([1]; 3 h) was 0.344 ± 0.143 %ID/g and the “%ID/g Small intestine” value ([1]; 3 h) was 0.597 ± 0.214 %ID/g. The “%ID/g Spleen” value ([1]; 3 h) was 0.475 ± 0.135 %ID/g, the “%ID/g Stomach” value ([1]; 3 h) was 2.801 ± 0.560 %ID/g and the “%ID/g Thyroid gland” value ([1]; 3 h) was 0.449 ± 0.171 %ID/g. For the same compound, the Femur/heart radioactivity ratio ([1]; 3 h) was 24.214, the Femur/liver radioactivity ratio ([1]; 3 h) was 8.949 and the Femur/muscle radioactivity ratio ([1]; 3 h) was 20.664. For the same compound, the “%ID/g Blood” value ([1]; 6 h) was 0.496 ± 0.207 %ID/g, the “%ID/g Brain” value ([1]; 6 h) was 0.045 ± 0.011 %ID/g and the “%ID/g Femur” value ([1]; 6 h) was 7.724 ± 2.292 %ID/g. The “%ID/g Gonad” value ([1]; 6 h) was 0.303 ± 0.141 %ID/g, the “%ID/g Heart” value ([1]; 6 h) was 0.199 ± 0.049 %ID/g and the “%ID/g Kidney” value ([1]; 6 h) was 2.763 ± 0.731 %ID/g. The “%ID/g Liver” value ([1]; 6 h) was 0.526 ± 0.087 %ID/g, the “%ID/g Lung” value ([1]; 6 h) was 0.506 ± 0.104 %ID/g and the “%ID/g Muscle” value ([1]; 6 h) was 0.220 ± 0.124 %ID/g. The “%ID/g Small intestine” value ([1]; 6 h) was 0.608 ± 0.192 %ID/g, the “%ID/g Spleen” value ([1]; 6 h) was 0.296 ± 0.108 %ID/g and the “%ID/g Stomach” value ([1]; 6 h) was 1.741 ± 0.368 %ID/g. For the same compound, the “%ID/g Thyroid gland” value ([1]; 6 h) was 0.399 ± 0.082 %ID/g, the Femur/heart radioactivity ratio ([1]; 6 h) was 38.835 and the Femur/liver radioactivity ratio ([1]; 6 h) was 14.694. For the same compound, the Femur/muscle radioactivity ratio ([1]; 6 h) was 35.182, the “%ID/g Blood” value ([1]; 24 h) was 0.058 ± 0.013 %ID/g and the “%ID/g Brain” value ([1]; 24 h) was 0.024 ± 0.013 %ID/g. The “%ID/g Femur” value ([1]; 24 h) was 6.177 ± 2.163 %ID/g, the “%ID/g Gonad” value ([1]; 24 h) was 0.059 ± 0.032 %ID/g and the “%ID/g Heart” value ([1]; 24 h) was 0.045 ± 0.012 %ID/g. The “%ID/g Kidney” value ([1]; 24 h) was 0.913 ± 0.173 %ID/g, the “%ID/g Liver” value ([1]; 24 h) was 0.122 ± 0.042 %ID/g and the “%ID/g Lung” value ([1]; 24 h) was 0.138 ± 0.037 %ID/g. For the same compound, the “%ID/g Muscle” value ([1]; 24 h) was 0.051 ± 0.020 %ID/g, the “%ID/g Small intestine” value ([1]; 24 h) was 0.078 ± 0.013 %ID/g and the “%ID/g Spleen” value ([1]; 24 h) was 0.189 ± 0.052 %ID/g. The “%ID/g Stomach” value ([1]; 24 h) was 0.098 ± 0.036 %ID/g, the “%ID/g Thyroid gland” value ([1]; 24 h) was 0.115 ± 0.036 %ID/g and the Femur/heart radioactivity ratio ([1]; 24 h) was 137.083. The Femur/liver radioactivity ratio ([1]; 24 h) was 50.645, the Femur/muscle radioactivity ratio ([1]; 24 h) was 121.910 and the “%ID/g Blood” value ([1]; 48 h) was 0.031 ± 0.009 %ID/g. For the same compound, the “%ID/g Brain” value ([1]; 48 h) was 0.009 ± 0.002 %ID/g, the “%ID/g Femur” value ([1]; 48 h) was 5.239 ± 2.029 %ID/g and the “%ID/g Gonad” value ([1]; 48 h) was 0.029 ± 0.009 %ID/g. The “%ID/g Heart” value ([1]; 48 h) was 0.019 ± 0.010 %ID/g, the “%ID/g Kidney” value ([1]; 48 h) was 0.399 ± 0.153 %ID/g and the “%ID/g Liver” value ([1]; 48 h) was 0.038 ± 0.020 %ID/g. For the same compound, the “%ID/g Lung” value ([1]; 48 h) was 0.040 ± 0.020 %ID/g, the “%ID/g Muscle” value ([1]; 48 h) was 0.016 ± 0.005 %ID/g and the “%ID/g Small intestine” value ([1]; 48 h) was 0.033 ± 0.010 %ID/g. The “%ID/g Spleen” value ([1]; 48 h) was 0.046 ± 0.009 %ID/g, the “%ID/g Stomach” value ([1]; 48 h) was 0.047 ± 0.019 %ID/g and the “%ID/g Thyroid gland” value ([1]; 48 h) was 0.070 ± 0.019 %ID/g. The Femur/heart radioactivity ratio ([1]; 48 h) was 270.814, the Femur/liver radioactivity ratio ([1]; 48 h) was 136.914 and the Femur/muscle radioactivity ratio ([1]; 48 h) was 325.483. The “Bone imaging, uptake in the model side vs control side” value ([2]; 1–3 h after injection, concentration mainly in surrounding soft tissue) was “higher than that of the control side”, the “ROI ratio of model bone/contralateral bone (mean)” value ([2]; 6 h) was 1.245 and the “ROI ratio of model bone/contralateral bone (mean)” value ([2]; 16 h) was 1.633. The “ROI ratio of model bone/contralateral bone (mean)” value ([2]; 32 h) was 1.529, the “RCP, in vitro stability” value ([3]; 0.9% NaCl, 1 h) was 98.14 ± 0.2% and the “RCP, in vitro stability” value ([3]; 0.9% NaCl, 3 h) was 97.82 ± 0.6%. The “RCP, in vitro stability” value ([3]; 0.9% NaCl, 6 h) was 96.99 ± 1.3%, the “RCP, in vitro stability” value ([3]; 0.9% NaCl, 12 h) was 95.33 ± 1.1% and the “RCP, in vitro stability” value ([3]; 0.9% NaCl, 24 h) was 91.44% and 91.44 ± 0.8%. For the same compound, the “RCP, in vitro stability” value ([3]; human serum, 1 h) was 99.01 ± 0.5%, the “RCP, in vitro stability” value ([3]; human serum, 3 h) was 98.67 ± 0.9% and the “RCP, in vitro stability” value ([3]; human serum, 6 h) was 98.15 ± 0.8%. For the same compound, the “RCP, in vitro stability” value ([3]; human serum, 12 h) was 96.90 ± 1.4% and the “RCP, in vitro stability” value ([3]; human serum, 24 h) was 93.06% and 93.06 ± 1.6%.
